Where “and” joins values, the source holds several entries; their conditions need not be identical. Equal entries are not always repeated.
Tests used:
[1] = target: T1, MalE-VirF binding to the pvirB DNA probe (Shigella flexneri, UniProt P0A2T1); assay: Fluorescence polarization (FP) assay, inhibition of MalE-VirF binding to the pvirB DNA probe
T1 construct: pMALvirF was constructed by cloning the virF gene into the vector, pMAL-c2x; made in house; host or cells: Shigella flexneri BS103 (pBAD202-MALvirF); initial preparations in E. coli KS1000 (pMALvirF)
Method: The FP assays were conducted in duplicate in black, half-area, 96-well plates (Corning, Twerksbury, MA). First, 30 μL of 5’-Fluoroscein-pvirB DNA probe working standard was added to appropriate wells of the microplate. The pvirB DNA working standard was in TE/NaCl buffer (see above) supplemented with BSA (0.07 mg/mL) and salmon sperm DNA (0.7 mg/mL). Next, 30 μL of varying concentrations of MalE-VirF in amylose resin elution buffer (see above) was added to appropriate wells of the microplate. The final concentration of pvirB DNA was either 50 nM (for test wells) or none (for blank wells) and the final concentrations of MalE-VirF ranged from 45 μM to 0.12 μM (for test wells) or none (for control wells). For each concentration of MalE-VirF tested, a blank well was also set up that included all reagents except pvirB DNA. The microplate was then incubated for 20 minutes at 37°C and anisotropy was determined using a SpectraMax M5 plate reader (Molecular Devices, Sunnyvale, CA). Data was acquired using an excitation wavelength equal to 490 nm and an emission wavelength equal to 520 nm. To determine anisotropy the following equation was used: Anisotropy=F∥-G^*F⊥/F∥+2^*G^*F⊥^*1000 where: Fǁ = fluorescence intensity parallel to excitation source after blanking, F┴ = fluorescence intensity perpendicular to excitation source after blanking, and G = G-factor (correction for polarization bias of the detection system). After anisotropy was determined, data were plotted using GraphPad Prism (La Jolla, Ca) and fit to the following equation: […] where Y = specific binding, KD = dissociation constant, BMAX = maximum binding, X = MalE-VirF concentration, and b = y-intercept.
The FP protocol listed above was adapted to determine the IC50 of the small molecule hit compounds. Compounds (ranging from 200 μM to 3.1 μM) or DMSO for controls (1% final concentration) were added to the pvirB DNA probe working standard prior to addition to the microplates. For IC50 determination, the MalE-VirF and pvirB DNA probe concentrations were held constant at 20 μM and 50 nM, respectively. Positive controls were established to determine 100% VirF inhibition (no MalE-VirF present, 50 nM pvirB DNA probe) and negative controls were set up to determine no VirF inhibition (1% DMSO, 20 μM MalE-VirF, and 50 nM pvirB DNA probe). Once again blanks were set up to include all reagents, except pvirB DNA probe. All reactions were run in duplicate. Anisotropy was calculated as listed above and data were plotted using GraphPad Prism then fit to the following equation: Y=Bottom+(Top-Bottom)/(1+10^(X-logIC50)) where: Y = anisotropy, X = log of compound concentration (M), Top and Bottom = plateaus in anisotropy units, and LogIC50 = log of the concentration that inhibits 50% of VirF binding. In the presence of the compounds (no VirF), a small increase (~6%) in the DNA anisotropy was observed.
The FP protocol used for IC50 determination was adapted to test a library of small molecule inhibitors of VirF. All steps were identical to the above protocol except compounds were tested at only 100 μM final concentration and positive control samples included 100 μM of compound. Once again blanks were set up to include all reagents, except pvirB DNA probe, and all reactions were run in duplicate. Anisotropy was calculated as listed above, and %inhibition was calculated as follows: %inhibition=rneg-rtest/rneg^*100 where: rneg = average anisotropy for negative controls and rtest = average anisotropy in presence of compound. Note: All rneg and rtest values were normalized to positive control values.

[2] = system: 10 bp pvirB FID DNA probes; assay: Fluorescence intercalator displacement (FID) assay, 10 bp probes; type: binding, Shigella flexneri; conditions: for 10 bp pvirB 51–60 FID probe %fluorescence: ethidium bromide 7.5 μM, probe 1.5 μM
Method: The FID protocol was based on previously published studies and was conducted in triplicate. For the assay, black, half-area, 96-well plates (Corning, Twerksbury, MA) were used. First, 70 μL of ethidium bromide in Tris Buffer (0.1 M Tris HCl, 0.1 M NaCl, pH 8.0) was added to all wells. The concentration of ethidium bromide was contingent upon the length of the DNA probe that was used. For the 60 bp pvirB FID DNA probe, the final ethidium bromide concentration used was 45 μM; whereas, for the 10 bp pvirB (51–60) FID DNA probe, the final ethidium bromide concentration used was 7.5 μM. Next, 10 μL of either pvirB FID DNA probes (10 or 60 bp) in TE/NaCl buffer (see above) or 10 μL of TE/NaCl buffer (background fluorescence control) were added to the appropriate wells of the plate. The final concentrations of the pvirB FID DNA probes were 1.5 μM. Lastly, 20 μL of test compound (either 19615 or Berenil) in 10% DMSO Tris Buffer or 20 μL of 10% DMSO Tris Buffer (100% fluorescence control) were added to the appropriate wells of the plate. […] After the addition of all reagents, the plates were protected from light and allowed to equilibrate for 30 min on an orbital shaker at room temperature. Following equilibration, fluorescence was measured […] using a Biotek Synergy H1 plate reader (Winooski, VT). The average background fluorescence was subtracted from all data generated and %fluorescence was calculated for all wells containing compound via the following formula: %fluorescence=Ftest/F100%^*100 where: Ftest = the average fluorescence value obtained for each test compound and F100% = the average fluorescence value obtained for each 100% fluorescence control.

[3] = system: mammalian cells; parameters: method as in PMID 24549153; conditions: at the tested concentrations; cited from earlier work

T1 sequence (P0A2T1 whole entry, looked up): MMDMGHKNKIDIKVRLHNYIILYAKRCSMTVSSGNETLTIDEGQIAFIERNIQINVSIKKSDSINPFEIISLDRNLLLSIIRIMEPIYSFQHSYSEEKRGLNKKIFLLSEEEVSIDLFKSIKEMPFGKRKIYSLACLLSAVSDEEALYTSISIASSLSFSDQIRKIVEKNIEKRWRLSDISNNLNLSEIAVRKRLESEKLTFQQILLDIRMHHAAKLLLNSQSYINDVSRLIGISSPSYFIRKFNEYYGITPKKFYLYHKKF

CN(C)CCOc1nc(-c2ccccc2)nc2c1oc1ccccc12 [compound 19615]
IC50 [1]: 46 ± 2.2 µM
Ki [1]: 5.6 µM
inhibition at 100 µM ([1]; read-out: % Inhibition at 100 μM): 63%
%fluorescence, 10 bp fragment pvirB 21-30 ([2]; compound 2 μM, preliminary FID screen, 5'-AATAAAGATA-3'): 92% ± 1%
%fluorescence, 10 bp fragment pvirB 31-40 ([2]; compound 2 μM, preliminary FID screen, 5'-AATTGCATCA-3'): 94% ± 2%
%fluorescence, 10 bp fragment pvirB 1-10 ([2]; compound 2 μM, preliminary FID screen, 5'-AGAATATTAT-3'): 93% ± 6%
%fluorescence, 10 bp fragment pvirB 41-50 ([2]; compound 2 μM, preliminary FID screen, 5'-ATCCAGCTAT-3'): 94% ± 1%
%fluorescence, 10 bp fragment pvirB 51-60 ([2]; compound 2 μM, preliminary FID screen, 5'-TAAAATAGTA-3'): 92% and 92% ± 0%
%fluorescence, 10 bp fragment pvirB 11-20 ([2]; compound 2 μM, preliminary FID screen, 5'-TCTTTTATCC-3'): 95% ± 3%
10 bp pvirB 51–60 FID probe %fluorescence ([2]; compound 12.5 μM): 97% ± 2%
10 bp pvirB 51–60 FID probe %fluorescence ([2]; compound 25 μM): 97% ± 3%
10 bp pvirB 51–60 FID probe %fluorescence ([2]; compound 50 μM): 97% ± 2%
10 bp pvirB 51–60 FID probe %fluorescence ([2]; compound 100 μM): 95% ± 1%
Toxicity to mammalian cells [3]: not toxic

Reference: PMC4564171 (PLoS ONE, 2015)
